Reference: patent US20090281025A1, “INHIBITION OF TUMOR GROWTH AND METASTASIS BY ATF2-DERIVED PEPTIDES” (Mount Sinai School Of Medicine of New York University, priority 2004, published 2009)
“Also recorded” adds a separate entry of the source.

What was measured:
human melanoma cells = settings: cited from earlier work
TRE-Luc = TRE-Luc luciferase reporter assay in SW1 cells; format: cell-based, mouse; settings: SW1 cells expressing peptide, luciferase after 18 hours
Procedure: SW1 cells constitutively expressing the indicated ATF2 peptides were transfected with either TRE-Luc (FIG. 5A) or with Jun2-Luc (FIG. 5B), and proteins were prepared for analysis of luciferase activity after 18 hours. Analysis was performed in duplicate, and the data reflect three independent experiments. SW1 cells expressing the ATF2 peptides were analyzed to establish the degree of spontaneous (basal) apoptosis as well as apoptosis 24 hours following treatment with the chemotherapeutic drug UCN-01 (FIG. 5C). The data represent triplicate analysis reproduced three times.
Alteration of ATF2 Transcriptional Activity. Assessed next was whether the short peptide caused any change in transcriptional activity mediated by ATF2 and its heterodimeric partners, using the TRE and Jun2 promoter sequences linked to the Luciferase marker gene. These reporter constructs (0.3 μg) were cotransfected with the respective expression vectors into melanoma cells (5×10^5) using Lipofectamine (Invitrogen). Luciferase activity was measured using the Luciferase assay system (Promega).

JNK = settings: cited from earlier work
[1] = system: FEMX human melanoma cells; test: Growth and TUNEL apoptosis of FEMX human melanoma tumors expressing ATF2 peptide in nude mice; format: in vivo
Description: LU1205 or FEMX human melanoma tumor-derived cell lines that constitutively express ATF2^51-100 peptide or that contain control vector were each injected subcutaneously into a group of 6 nude mice (10^6 cells per injection) per cell line per experiment. […] The data shown represent three experiments. Bars represent standard deviation, P<0.0015. […] The data shown represent three experiments. Bars represent standard deviation, P<0.0021.
The ability of expressed ATF2^51-100 peptide to affect the tumorigenicity of human melanoma cells in vivo was examined. To this end, growth of LU1205 and FEMX human melanoma cells were monitored in nude mice in the presence or absence of treatment that induced apoptosis in vitro. LU1205, FEMX and SW-1 cells that express control or ATF2^51-100 peptide were trypsinized, resuspended in PBS and injected SC (1×10^6) into 6-7 week old mice in the lower flank. When the tumor reached the size of about 50 mm^3, 10 μM of SB203580 was injected into 4 areas of the LU1205 tumors every 4 days during a 2 week period. For FEMX tumors, UCN-01 (5 mg/Kg) was fed by gavage, three times per week for a total of 2 weeks. Tumor growth was monitored every two days. Tissue samples were fixed in formalin and embedded in paraffin. Hematoxylin and eosin (H&E), TUNEL staining was performed as previously described (Bhoumik et al., Clin. Cancer Res., 2001; 2:331-342).

[2] = system: early-stage melanoma, melanocytes, in vitro transformed 293T cells; settings: cited from earlier work

ATF2^51-100: amino-terminal peptide of ATF2, amino acid residue 51 to 100 (about a 50 amino acid peptide), expressed in tumor cells (MTLKFGPARNDSVIVADQTPTPTRFLKNCEEVGLFNELASPFENEFKKAS; UniProt P15336 51-100, looked up, fragment)
degree of programmed cell death (spontaneous and induced apoptosis) (human melanoma cells; combined with an inhibitor of the p38 catalytic activity): increase in the degree of programmed cell death
sensitivity to UV radiation or mitomycin C, adriamycin and verapamil, or UCN-01 (apoptosis assays) (human melanoma cells; compared with three other 50 amino acid amino-terminal ATF2 peptides): most efficient increase in the sensitivity
cell surface expression of Fas (human melanoma cells; late stage melanoma cells): increased cell surface expression of Fas
TRE-Luc activity (TRE-Luc): marked increase
basal JNK activity (JNK): increased basal JNK activity
binding to JNK (JNK): binds to JNK
tumor growth rate ([1]; FEMX cells constitutively expressing peptide, SC in nude mice): reduced the growth rates; also recorded: inhibits growth
tumor growth with additional treatment ([1]; peptide-expressing FEMX tumors plus UCN-01 5 mg/Kg by gavage): additional decrease in growth
degree of apoptosis in tumors (TUNEL) ([1]; peptide-expressing tumors upon exposure to additional treatment): marked increase in the degree of apoptosis
sensitization by ATF2 peptide [2]: not in early-stage melanoma, or melanocytes, or in in vitro transformed 293T cells
